Results published in US10604524B2, “Pyrropyrimidine compounds as MNKs inhibitors” (LIFEARC, priority 2015, dated 2020).
pIC50: −log10 of the molar value.

Legend:
[1] = tested on: phosphorylation of eIF4E at ser209 in MV4.11 cell line; assay: cells; assay type: cell-based; details: Homo sapiens; MV4.11 cells, 1.5 hr compound incubation, average of at least 2 independent experiments; read-out: plc50 elF4E (converted)
Experimental: MNK activity in cells was measured by monitoring the phosphorylation of eIF4E at ser209, the known endogenous substrate of MNK1/2, in cell lysates. […] The assay detection is based on the formation of sandwich antibody complexes coupled to donor and acceptor beads. Excitation at 680 nm causes the transfer of a singlet oxygen species between donor and acceptor beads when they are in close proximity by binding to the analyte […], which results in the emission of light at 520-620 nm.
Cells were then lysed and the Aphascreen Surefire protocol followed according to manufacturer's recommendations. 8 ul Acceptor beads (1:50 dilution in kit activation buffer) was added to lysate, shaken 150 rpm for 2 min and incubated for 1.5 hr at room temperature. 3 ul Donor beads (1:20 dilution in kit dilution buffer) were then added, shaken 150 rpm for 2 min and incubated for a further 1.5 hr at room temperature after which the plates were read on Pherastar FS using Alphascreen optic module.
Data were normalised relative to untreated DMSO only controls and curves repeated in duplicate within experiments. Data reported are averages of at least 2 independent experiments.

Full-length human MNK1 = Full-length human MNK1 (Homo sapiens, UniProt Q9BUB5, T385D); assay: MNK1 biochemical IC50 assay (Caliper mobility shift)
Full-length human MNK2 = Full-length human MNK2 (Homo sapiens, UniProt Q9HBH9, T379D); assay: MNK2 biochemical IC50 assay (Caliper mobility shift)
Chain of Full-length human MNK2 (Q9HBH9 whole entry T379D): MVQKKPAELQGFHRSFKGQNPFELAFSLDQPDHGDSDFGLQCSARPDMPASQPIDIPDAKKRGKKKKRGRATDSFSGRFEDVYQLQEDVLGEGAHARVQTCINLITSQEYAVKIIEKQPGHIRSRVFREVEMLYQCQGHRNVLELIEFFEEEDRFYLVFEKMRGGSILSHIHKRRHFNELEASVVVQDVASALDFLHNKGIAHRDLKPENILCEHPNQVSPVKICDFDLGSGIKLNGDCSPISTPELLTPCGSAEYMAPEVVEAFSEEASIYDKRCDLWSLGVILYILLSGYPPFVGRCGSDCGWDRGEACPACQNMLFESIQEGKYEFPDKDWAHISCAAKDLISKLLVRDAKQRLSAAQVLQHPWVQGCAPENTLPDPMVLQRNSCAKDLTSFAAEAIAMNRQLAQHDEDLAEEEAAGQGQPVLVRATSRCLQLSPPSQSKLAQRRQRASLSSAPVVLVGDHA

Chain of Full-length human MNK1 (Q9BUB5 1-424 isoform Q9BUB5-2 T344D): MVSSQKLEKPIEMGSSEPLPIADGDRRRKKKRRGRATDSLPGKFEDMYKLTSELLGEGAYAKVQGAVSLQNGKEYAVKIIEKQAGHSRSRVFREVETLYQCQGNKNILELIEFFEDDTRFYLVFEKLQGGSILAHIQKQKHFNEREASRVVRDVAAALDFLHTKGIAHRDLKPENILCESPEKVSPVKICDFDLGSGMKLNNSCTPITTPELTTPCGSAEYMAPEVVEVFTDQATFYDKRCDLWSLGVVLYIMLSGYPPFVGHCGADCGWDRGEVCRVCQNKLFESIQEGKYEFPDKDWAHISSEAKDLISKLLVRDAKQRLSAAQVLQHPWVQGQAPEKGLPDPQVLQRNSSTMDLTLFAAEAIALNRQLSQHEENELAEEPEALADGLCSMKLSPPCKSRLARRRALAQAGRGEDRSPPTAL

Row | pIC50 (Full-length human MNK1) | pIC50 (Full-length human MNK2) | Structure (SMILES) | IC50 [1]
1 | 7.10 | 7.50 | CC(CF)Oc1cc(F)ccc1Nc1ncnc2ccn(C)c12 (racemic) [Example 26, Racemic-N-[4-fluoro-2-(2-fluoro-1-methyl-ethoxy)phenyl]-5-methyl-pyrrolo[3,2-d]pyrimidin-4-amine] | 15.8 nM
2 | 6.70 | 6.90 | CCn1ccc2ncnc(Nc3ccc(F)cc3OC(C)C)c21 [Example 1, 5-Ethyl-N-(4-fluoro-2-isopropoxy-phenyl)pyrrolo[3,2-d]pyrimidin-4-amine] | 50.1 nM
3 | 6.30 | 6.40 | CCCn1ccc2ncnc(Nc3ccc(F)cc3OC(C)C)c21 [Example 2, N-(4-fluoro-2-isopropoxy-phenyl)-5-propyl-pyrrolo[3,2-d]pyrimidin-4-amine] | 158 nM
4 | 6.00 | 6.30 | CC(C)Oc1cc(F)ccc1Nc1ncnc2ccn(C(C)C)c12 [Example 3, N-(4-fluoro-2-isopropoxy-phenyl)-5-isopropyl-pyrrolo[3,2-d]pyrimidin-4-amine] | 158 nM
5 | 5.70 | 5.90 | CC(C)Oc1cc(F)ccc1Nc1ncnc2ccn(CCO)c12 [Example 4, 2-[4-(4-Fluoro-2-isopropoxy-anilino)pyrrolo[3,2-d]pyrimidin-5-yl]ethanol] | 251 nM
6 | 5.50 | 5.70 | COCCn1ccc2ncnc(Nc3ccc(F)cc3OC(C)C)c21 [Example 5, N-(4-fluoro-2-isopropoxy-phenyl)-5-(2-methoxyethyl)pyrrolo[3,2-d]pyrimidin-4-amine] | 1000 nM
7 | 6.60 | 7.20 | CC(C)Oc1nc(Cl)ccc1Nc1ncnc2ccn(C)c12 [Example 6, N-(6-chloro-2-isopropoxy-3-pyridyl)-5-methyl-pyrrolo[3,2-d]pyrimidin-4-amine] | 63.1 nM
8 | 5.50 | 5.90 | Cc1ccc(Nc2ncnc3ccn(C)c23)c(OC(C)C)c1 [Example 8, N-(2-isopropoxy-4-methyl-phenyl)-5-methyl-pyrrolo[3,2-d]pyrimidin-4-amine] | 501 nM
9 | 6.80 | 7.10 | CC(C)Oc1cc(Cl)ccc1Nc1ncnc2ccn(C)c12 [Example 9, N-(4-chloro-2-isopropoxy-phenyl)-5-methyl-pyrrolo[3,2-d]pyrimidin-4-amine] | 79.4 nM
10 | 5.00 | 5.90 | COc1ccc(Nc2ncnc3ccn(C)c23)c(OC(C)C)c1 [Example 10, N-(2-isopropoxy-4-methoxy-phenyl)-5-methyl-pyrrolo[3,2-d]pyrimidin-4-amine] | 200 nM
11 | 6.70 | 7.10 | Cn1ccc2ncnc(Nc3ccc(F)cc3O[C@H]3CC[C@H](O)CC3)c21 [Example 12, 4-[5-fluoro-2-[(5-methylpyrrolo[3,2-d]pyrimidin-4-yl)amino]phenoxy]cyclohexanol] | 15.8 nM
12 | 6.50 | 6.80 | Cn1ccc2ncnc(Nc3ccc(F)cc3OC3CCOCC3)c21 [Example 13, N-(4-fluoro-2-tetrahydropyran-4-yloxy-phenyl)-5-methyl-pyrrolo[3,2-d]pyrimidin-4-amine] | 63.1 nM
13 | 6.60 | 6.40 | Cn1ccc2ncnc(Nc3ccc4[nH]ncc4c3)c21 [Example 14, N-(1H-indazol-5-yl)-5-methyl-pyrrolo[3,2-d]pyrimidin-4-amine] | 398 nM
14 | 6.40 | 6.80 | Cn1ccc2ncnc(Nc3ccc(F)cc3O[C@H]3CCOC3)c21 [Example 15, N-[4-fluoro-2-[(3S)-tetrahydrofuran-3-yl]oxy-phenyl]-5-methyl-pyrrolo[3,2-d]pyrimidin-4-amine] | 31.6 nM
15 | 6.60 | 6.90 | Cn1ccc2ncnc(Nc3ccc(F)cc3O[C@@H]3CCOC3)c21 [Example 16, N-[4-fluoro-2-[(3R)-tetrahydrofuran-3-yl]oxy-phenyl]-5-methyl-pyrrolo[3,2-d]pyrimidin-4-amine] | 79.4 nM
16 | 5.50 | 6.20 | CO[C@H]1CCC[C@@H](Oc2cc(F)ccc2Nc2ncnc3ccn(C)c23)C1 [Example 20, N-[4-fluoro-2-[(1R,3S)-3-methoxycyclohexoxy]phenyl]-5-methyl-pyrrolo[3,2-d]pyrimidin-4-amine] | 200 nM
17 | 6.80 | 7.10 | CO[C@@H]1CCC[C@H](Oc2cc(F)ccc2Nc2ncnc3ccn(C)c23)C1 [Example 21, N-[4-fluoro-2-[(1S,3R)-3-methoxycyclohexoxy]phenyl]-5-methyl-pyrrolo[3,2-d]pyrimidin-4-amine] | 25.1 nM
18 | 7.00 | 7.30 | C[C@@H](CF)Oc1cc(F)ccc1Nc1ncnc2ccn(C)c12 [Example 22, N-[4-fluoro-2-[(1S)-2-fluoro-1-methyl-ethoxy]phenyl]-5-methyl-pyrrolo[3,2-d]pyrimidin-4-amine] | 15.8 nM
19 | 6.90 | 7.40 | C[C@H](CF)Oc1cc(F)ccc1Nc1ncnc2ccn(C)c12 [Example 23, N-[4-fluoro-2-[(1R)-2-fluoro-1-methyl-ethoxy]phenyl]-5-methyl-pyrrolo[3,2-d]pyrimidin-4-amine] | 15.8 nM

Row | Structure (SMILES) | pIC50 (Full-length human MNK1) | pIC50 (Full-length human MNK2) | IC50 [1]
20 | CC(C)Oc1cc(C#N)ccc1Nc1ncnc2ccn(C)c12 [Example 7, 3-Isopropoxy-4-[(5-methylpyrrolo[3,2-d]pyrimidin-4-yl)amino]benzonitrile] | 7.30 | 7.60 | 31.6 nM
21 | Cn1ccc2ncnc(Nc3ccc(F)cc3OC(CF)CF)c21 [Example 11, N-[4-fluoro-2-[2-fluoro-1-(fluoromethyl)ethoxy]phenyl]-5-methyl-pyrrolo[3,2-d]pyrimidin-4-amine] | 6.80 | 7.30 | –
22 | Cn1ccc2ncnc(Nc3ccc(F)cc3OC3CCC3)c21 [Example 17, N-[2-(cyclobutoxy)-4-fluoro-phenyl]-5-methyl-pyrrolo[3,2-d]pyrimidin-4-amine] | 6.70 | 7.10 | 31.6 nM
23 | Cn1ccc2ncnc(Nc3ccc(F)cc3O[C@@H]3CCCOC3)c21 [Example 18, N-[4-fluoro-2-[(3R)-tetrahydropyran-3-yl]oxy-phenyl]-5-methyl-pyrrolo[3,2-d]pyrimidin-4-amine] | 7.20 | 7.50 | –
24 | Cn1ccc2ncnc(Nc3ccc(F)cc3O[C@H]3CCCOC3)c21 [Example 19, N-[4-fluoro-2-[(3S)-tetrahydropyran-3-yl]oxy-phenyl]-5-methyl-pyrrolo[3,2-d]pyrimidin-4-amine] | 6.30 | 6.90 | –
25 | Cn1ccc2ncnc(Nc3ccc(F)cc3OC3CCCC3)c21 [Example 25, N-[2-(cyclopentyloxy)-4-fluorophenyl]-5-methyl-5H-pyrrolo[3,2-d]pyrimidin-4-amine] | 6.90 | 7.50 | –
26 | CC(C)Oc1cc(F)ccc1Nc1ncnc2cc(C(=O)NCC3CCNCC3)n(C)c12 [Example 41, 4-{[4-Fluoro-2-(propan-2-yloxy)phonyl]amino}-5-methyl-N-(piperidin-4-ylmethyl)-5H-pyrrolo[3,2-d]pyrimidine-6-carboxamide] | 7.40 | 7.40 | –
27 | Fc1ccc2c(c1)CCN2c1ncnc2cc[nH]c12 [Example 46, 4-(5-Fluoroindolin-1-yl)-5H-pyrrolo[3,2-d]pyrimidine] | 7.40 | 7.50 | –
